According to patent US20260132165A1, “MODIFIED NUCLEOSIDE ANALOGUE AND USE THEREOF, AND NUCLEOSIDE ANALOGUE-CONTAINING DOUBLE-STRANDED OLIGONUCLEOTIDE AND USE THEREOF” (RIGERNA THERAPEUTICS (BEIJING) CO., LTD., priority 2023, published 2026):
Strand notation (5' to 3'): a small letter for the sugar, then the base; units joined by * are phosphorothioate-linked, units joined directly phosphodiester-linked; [ ] holds rarer units or linkages, { } end groups; capitals alone tell only the bases. m = 2'-O-methyl; f = 2'-fluoro

Legend:
[1] = system: SOD1; test: Test Example 2: inhibitory activity of NM031 conjugated siRNA on SOD1 by intrathecal administration to mice; format: in vivo, C57BL/6j mice; details: intrathecal, 800 μg per mouse, D9
Protocol: 6-8 Week-old C57BL/6j mice were randomly grouped into 4 groups by body weight. PBS group was dosed with siRNA-free PBS solution, RX899001 group was dosed with siRNA compound RX899001 without vector conjugation, RZ899001 group was dosed with siRNA RZ899001 (the sense strand with the Uhd conjugation at Position 4) prepared in Example 1, and RZ899008 was dosed with siRNA RZ899008 (the sense strand with the NM031 conjugation at Position 4) prepared in Example 1. Mices in each group were anesthetized with isoflurane. After anesthetization, lumbar region thereof was sprayed wet with 75% disinfecting alcohol. 10 μL (concentration […]) of siRNA drug containing PBS solvent was sucked with an insulin injection needle, the mouse lumbar region was pinched with the left-hand index finger and thumb, patella crest was propped against, and needle was held by the right hand. The needle was bent by forceps in advance, wherein the needle was first bent in the middle by 80° to 90°, then a front half part of the needle was bent in half, and the whole needle was bent in an are shape of about 60° to 90°. Mouse abdominal region was padded with an article with a thickness of about 2 cm. The needle was inserted from a joint of lumbar spines L5 and L6 of mice, and when inserting the needle, the hand was slightly inclined forwards to insert the needle. […] After completion of the injection, the needle was slowly withdrawn at uniform velocity. The administration dose to each mouse in RX899001 group, RZ899001 group and RZ899008 group was 800 μg, a total volume injected was 10 μL, and the PBS group was administered with the same volume of siRNA-free PBS solution. After the animals woke up, the animals were returned back to the animal feeding room and further fed. The day of administration was recorded as first day (D1), and the mice were sacrificed on ninth day (D9). Lumbar spine, thoracic spine and cerebellum were respectively taken and stored in the RNAlater.
RNA extraction: an appropriate amount of lumbar spine, thoracic spine and cerebellum samples were respectively taken out from the RNAlater, and smashed for 60 s in Tissuelyser type II full-automatic tissue homogenizer, and total RNAs of various tissue samples were extracted using the full-automatic nucleic acid extraction instrument and the nucleic acid extraction kit from Zhejiang Hanwei Science and Technology Co. Ltd. according to methods described in instructions. Reverse transcription reaction: 1 μg of the extracted total RNAs of various tissue samples were respectively taken, and configured into 20 μL of reverse transcription system according to a method described in kit instructions by using a reverse transcription kit (Reverse Transcription System, A3500) from Promega Corporation and selecting Oligo (dT)15 reverse transcription primers, and the reverse transcription reaction was completed. After the reaction was ended, 80 μL of RNase-Free water was added into the reverse transcription system to provide cDNA solution for Real-time PCR detection.
Real-time PCR detection: 20 μL of Real-time PCR reaction system per PCR detection well was configured according to a method described in kit instructions using SYBR™ Select Master Mix (Catalog number: 4472908) reagent from ABI company. Each detection system contained 5 μL of cDNA template obtained from the above reverse transcription reaction, 10 μL of SYBR™ Select Master Mix, 0.5 μL of 10 μM upstream primers, 0.5 μL of 10 μM downstream primers (see TABLE 5 for primer information), and 4 μL of RNase-Free H2O. The configured reaction system was subjected to Real-time PCR amplification on ABI StepOnePlus PCR instrument by a three-step method, wherein an amplification procedure was pre-denaturation at 95° C. for 10 min, then denaturation at 95° C. for 30 s, annealing at 60° C. for 30 s, and extension at 72° C. for 30 s; and processes of denaturation, annealing, and extension were repeated for 40 cycles. […]

[2] = system: target gene SOD1; test: Test Example 3: inhibitory activity of lipid conjugated siRNA sequences on SOD1 by lateral ventricle administration to mice; format: in vivo, C57BL/6j mice; details: 200 μg per mouse, D5
Protocol: 6-8 Week-old C57BL/6j mice were randomly grouped by body weight. Mice in each group were administered with siRNA by lateral ventricle administration, with an administration dose per mouse depending on a specific test. Taking Bregma in mouse brain as point 0 (origin), coordinates of right ventricle were found using the cerebral stereotaxic apparatus and position was marked on surface of skull (position of lateral ventricle was AP (anteroposterior, bregma anterior and posterior): −0.58 mm, ML (mediolateral, left and right of middle raphe): −1.2 mm, DV (dorsoventral, up and down cerebral dura mater plane): −2.2 mm). A dental electric drill was used to drill in the skull above a position of interest, and then medicament was injected into the lateral ventricle by a micro-dosing pump, wherein a total injection volume was 5 μL, and injection duration was 10 min. Needle was retained for 5 min after completion of injection, and then slowly withdrawn. Afterwards, needle hole was sealed with biomedical glue, and then head skin was adhered. After animals woke up, the animals were returned back to animal house and further fed. PBS control group was administered with the same volume of siRNA-free PBS solution. The day of administration was recorded as 0 day (D0), and the mice were sacrificed at observation point after the administration. Different parts of brain region were respectively taken and stored in the RNAlater.
RNA extraction: the above tissue samples were taken out from the RNAlater, and smashed for 60 s in Tissuelyser type II full-automatic tissue homogenizer, and total RNAs of various tissue samples were extracted using the full-automatic nucleic acid extraction instrument and the nucleic acid extraction kit from Zhejiang Hanwei Science and Technology Co. Ltd. according to methods described in instructions.
Reverse transcription reaction: 1 μg of the extracted total RNAs of the tissue samples were taken, and configured into 20 μL of reverse transcription system according to a method described in kit instructions by using a reverse transcription kit (Reverse Transcription System, A3500) from Promega Corporation and selecting Oligo (dT)15 reverse transcription primers, and the reverse transcription reaction was completed. After the reaction was ended, 80 μL of RNase-Free water was added into the reverse transcription system to provide cDNA solution for Real-time PCR detection.
Real-time PCR detection: 20 μL of Real-time PCR reaction system per PCR detection well was configured according to a method described in kit instructions using SYBR™ Select Master Mix (Catalog number: 4472908) reagent from ABI company. Each detection system contained 5 μL of cDNA template obtained from the above reverse transcription reaction, 10 μL of SYBR™ Select Master Mix, 0.5 μL of 10 μM upstream primers, 0.5 μL of 10 μM downstream primers, and 4 μL of RNase-Free H2O. The configured reaction system was subjected to Real-time PCR amplification on ABI StepOnePlus PCR instrument by a three-step method, wherein an amplification procedure was pre-denaturation at 95° C. for 10 min, then denaturation at 95° C. for 30 s, annealing at 60° C. for 30 s, and extension at 72° C. for 30 s; and processes of denaturation, annealing, and extension were repeated for 40 cycles. Gene expression differences were calculated by the ΔΔCt method after completion of the procedure.
In the real-time fluorescence quantitative PCR method, relative quantitative calculation of remaining expression level and inhibition rate of gene mRNA of interest in various test groups was performed by the ΔΔCt method, and the calculation method is as follows: […]

Substance | Cerebellum Mean value of inhibition rate % [1] | Lumbar spine Mean value of inhibition rate % [1] | Thoracic spine Mean value of inhibition rate % [1] | Cerebellum Mean value of inhibition rate % [2] | Cortex Mean value of inhibition rate % [2] | Hippocampus Mean value of inhibition rate % [2]
RX899001: siRNA compound without vector conjugation, SOD1 sequence; sense SEQ ID NO: 1, antisense SEQ ID NO: 2 (sense mU*mU*mUmUmAmAfUfCfCmUmCmAmCmUmCmUmAmAmA; antisense mU*fU*mUmAmGfAmGmUmGmAmGmGmAfUmUfAmAmAmA*mU*mG) [reference compound] | 14.01% | 7.54% | 41.98% | – | – | –
RZ899001: control siRNA, the sense strand with the Uhd conjugation at Position 4; SEQ ID NO: 4 / 2 (sense UUUNAAUCCUCACUCUAAA; antisense UUUAGAGUGAGGAUUAAAAUG; Uhd conjugate at sense position 4; modified_base 1..2 OTHER; 2'-methoxy and 5'-thiophosphate modified nucleotides; modified_base 3 OTHER; 2'-methoxy modified nucleotide; modified_base 4 OTHER; n is the synthetic nucleotide analog Uhd as described in the disclosure.; modified_base 5..6 OTHER; 2'-methoxy modified nucleotides; modified_base 7..9 OTHER; 2'-fluoro modified nucleotides; modified_base 10..19 OTHER; 2'-methoxy modified nuc; modified_base 1 OTHER; 2'-methoxy and 5'-thiophosphate modified nucleotide; modified_base 2 OTHER; 2'-fluoro and 5'-thiophosphate modified nucleotide; …) [reference compound] | 60.22% | 64.13% | 60.27% | – | – | –
RZ899052: siRNA, the sense strand with the NM058 conjugation at Position 5; SEQ ID NO: 5 / 22 (sense UUUUNAUCCUCACUCUAAA; antisense UUUAGAGUGAGGAUUAAAAUG; NM058 conjugate at sense position 5; modified_base 1..2 OTHER; 2'-methoxy and 5'-thiophosphate modified nucleotides; modified_base 3..4 OTHER; 2'-methoxy modified nucleotides; modified_base 5 OTHER; n is the synthetic nucleotide analog NM058 as described in the disclosure(e.g., NM058-1 (1N-(9-[(2S,5R)-5-{[bis(4-methoxyphenyl)(phenyl)methoxy]methyl}-3,4-dihydroxytetrahydrofuran-2-yl]-9H-purin-6-yl)benzamide)).; modified_base 6 OTHER; modified_base 1 OTHER; 2'-methoxy and 5'-thiovinylphosphonate modified nucleotide; modified_base 2 OTHER; 2'-fluoro and 5'-thiophosphate modified nucleotide; …) | – | – | – | 53.02% | 62.93% | 87.35%
RZ899053: siRNA, the sense strand with the NM058 conjugation at Position 6; SEQ ID NO: 6 / 22 (sense UUUUANUCCUCACUCUAAA; antisense UUUAGAGUGAGGAUUAAAAUG; NM058 conjugate at sense position 6; modified_base 1..2 OTHER; 2'-methoxy and 5'-thiophosphate modified nucleotides; modified_base 3..5 OTHER; 2'-methoxy modified nucleotides; modified_base 6 OTHER; n is the synthetic nucleotide analog NM058 as described in the disclosure(e.g., NM058-1 (1N-(9-[(2S,5R)-5-{[bis(4-methoxyphenyl)(phenyl)methoxy]methyl}-3,4-dihydroxytetrahydrofuran-2-yl]-9H-purin-6-yl)benzamide)).; modified_base 7..9 OTHE; modified_base 1 OTHER; 2'-methoxy and 5'-thiovinylphosphonate modified nucleotide; modified_base 2 OTHER; 2'-fluoro and 5'-thiophosphate modified nucleotide; …) | – | – | – | 42.55% | 55.87% | 74.13%
